Reference: patent US11851459B2, “Methods and uses of modulators of anaphase promoting complex (APC) activity for treating cancer” (University of Saskatchewan, priority 2018, dated 2023)

How the values were obtained:
WT cells = assay: Stationary phase WT cells spot diluted (chronological lifespan / stress resistance); format: cell-based, yeast; settings: FIG. 2B; for stress resistance: WT cells grown to stationary phase, spot diluted; for chronological lifespan: WT cells
Procedure: (§1) A. apc5^CA (temperature sensitive allele) cells were transformed with C43-4 or an empty vector. Cells grown overnight in 2% Glu were struck onto 2% Glucose plates and used for the yeast RLS assay. From the top left hand corner of the figures, top line is WT +empty vector, middle line is apc5^CA+C43-4 peptide and bottom line is apc5^CA+empty vector. B. WT cells transformed with C43-4, C2-4B or an empty vector were grown to stationary phase in 2% Glu media, then after 2 days spot diluted onto 2% Glu or 2% Gal to induce expression of the peptides.

MDA-MB-231 cells [1] = assay: Scratch assay, migration of MDA-MB-231 cells; format: cell-based, human
Procedure: A. An equal number of MDA-MB-231 TNBC cells were grown to confluence in 6 well plates. The cells were then treated with increasing doses of metformin (0, 1, 5 and 10 mM) and a scratch was made in the cell lawn creating a void. At the times shown the number of cell that migrated into the void were counted. The experiment was repeated twice. B. WT MDA-MB-231 cells and cells stably expressing the C43-4 plasmid were grown as in A. Control cells were left untreated, with other cells treated with the DMSO control, 1 uM DOX or 2.5 uM M2I-1. A void was created in the cell lawn and the number of cells that entered the void were scored as above. This experiment was repeated 4 times. This experiment was also repeated 4 times in an independently generated stable C43-4 cell line with similar results. The error of the mean is shown. C. WT and MDA-MB-231 cells stably expressing the C2-4B peptide plasmid were used for the scratch assay as described above. D. WT and MDA-MB-231 cells stably expressing the C13-3 peptide plasmid were used for the scratch assay as described above. The experiments in C and D were only performed once.
Assays using WT and C43-4 expressing cells have been done 4 times. Assays using C13-3 and C2-4B cells have only been conducted once. Metformin treated cells have been used twice. For scratch assays, a scratch is made down a confluent plate of cells, leaving a void. The number of cells that migrate back into the void over time is determined.

apc5^CA cells = assay: Yeast replicative lifespan (RLS) assay; format: cell-based
Procedure: as §1

wild type (WT) cells = assay: C43-4 mutant peptides, spot dilution under temperature and UV stress, WT cells; format: cell-based, yeast; settings: low level expression on glucose
Procedure: The cells were exposed to 5 sec of UV from a UV box prior to incubation. The plus signs define growth compared to the empty vector control.
Residues 2, 7, 8, 10, 12 and 14 of peptide C43-4 are conserved with Htz1. All of these residues were mutated to alanine (FIG. 10). Peptides that contained mutations designed to determine which amino acids were required for function were generated. These mutant peptides were grown in wild type cells and in cells that had APC10 mutated, under temperature and UV stress conditions (FIGS. 10-12).
These cells were spot diluted on Trp^− plates and grown at the temperatures shown and/or exposed to ultraviolet (UV) irradiation (FIGS. 10-12). At low level expression on glucose, some of the mutations caused stress dependent phenotypes.
• 1. Cells were cultured overnight in Trp^− 2% glucose media • 2. The growth of the cells was determined by measuring the optical density (OD) of the cells at 600 nm (OD600) • 3. Cells were diluted to OD600 of 1 with fresh culture media • 4. 100 ul of each culture was pipetted into a well of a 96 well plate • 5. 10 ul of the each starting culture was pipetted into 90 ul of water in 4 additional wells to make a 10-fold serial spot dilution • 6. 5 ul from each serial dilution was spotted onto plates containing standard growth media with either 2% glucose or 2% galactose using a multi-pipettor • 7. The plates were exposed to UV • 8. […]

APC (substrate Cyclin B) = assay: Cyclin B protein levels in MCF7 cells; format: cell-based, human; settings: MCF7, 48 hrs; 1 mM metformin or transient transfection of peptide plasmid
Procedure: MCF7 breast cancer cells were treated with 1 mM metformin or transiently transfected with an APC activating peptide (C43-4) for 48 hrs, then harvested for assessment of Cyclin B protein levels. Cyclin B is an APC target.
A mouse model for growing patient derived breast tumor cells obtained from a patient with triple negative breast cancer was developed. This patient had developed resistance to Doxorubicin. Tumors growing in these mice grow rapidly. Mice growing the patient derived xenografted (PDX) tumor were injected with various amounts of M2I-1. […] Since the APC was activated in the canines tested in this study following treatment with metformin, it was asked if metformin can directly activate the APC. Reduced APC substrate Cyclin B levels following metformin treatment in human MCF7 breast cancer cells was observed, similar to that observed when MDF7 cells express the C43-4 plasmid (see below for more on this plasmid) (FIG. 21).

MDA-MB-231 cells [2] = assay: DOX sensitivity, MTT viability assay, MDA-MB-231 cells expressing peptides; format: cell-based, human; settings: for sensitivity to DOX treatment: DOX 1 uM 48 hrs
Procedure: A. Transient transfection of the C43-4 peptide plasmid into human triple negative MDA-MB-231 breast cancer cells followed by Western blot analysis of lysates against Cyclin B, Securin and Cdc20 showing enhanced protein loss. B. Cells in A were treated with DOX (1 uM) for 48 hrs with cell viability measured using an MTT assay kit. The experiment was done in triplicate with standard error of the means shown.
A. Stable integration of C43-4 in MDA-MB-231 cells was established by selection of transfected cells on Geneticin for 7 days. Westerns against APC substrates show APC activation. B. Cells in A were treated with DOX (1 uM) for 48 hrs with cell viability measured using an MTT assay kit. Mean and SEM of 3 biological repeats.
A. TNBC MDA-MB-231 cells stably expressing APC binding peptides activate the APC. Cells were grown to confluence and then used to prepare protein lysates. The lysates were used to measure levels of the APC substrate CDC20, which will be reduced if the APC is activated. Cells stably expressing the pcDNA empty vector were used as a control. B. In a similar experiment, MDA-MB-231 cells stably expressing the APC binding peptides shown, or the empty vector control, were used to measure protein levels of the APC substrate HURP using Westerns. C. Triplicate blots as in B were scanned, normalized to tubulin and plotted. Error of the mean is shown. Significant changes are indicated. D. MDA-MB-231 cells stably expressing the empty pcDNA vector, or the C43-4 and C13-3 APC binding peptides, were treated with 1 μM Doxorubicin for 24 hrs. Cell viability was measured using an MTT viability assay.
In FIG. 26B, MDA-MB-231 cells were also stably transfected with the peptides C1-8, C2-4B, C3-1B, and C9-5. Levels of the APC substrate HURP were measured in lysates prepared from these cells. […] The empty vector pcDNA was also stably expressed in 231 cells and used as a control.

For RMPQWWQWMWV [C2-4B], the stress resistance (WT cells) was “increase stress resistance”, the chronological lifespan (WT cells) was “improved chronological lifespan” and the “metastatic potential / in vitro migration” value (MDA-MB-231 cells [1]) was “inhibit the in vitro migration”.

With NGSSHNDLRVRRLTLISRLC [C43-4] the replicative lifespan (apc5^CA cells) was “increased replicative lifespan”, the stress resistance (WT cells) was “increase stress resistance” and the chronological lifespan (WT cells) was “improved chronological lifespan”. For the same sequence, the “stress resistance (growth compared to empty vector)” value (wild type (WT) cells) was “increased stress resistance”, the “APC substrate Cyclin B protein levels” value (APC (substrate Cyclin B)) was “reduces protein levels” and the “synergy with Doxorubicin (killing effect)” value (MDA-MB-231 cells [2]; stably transfected, 1 uM Doxorubicin 24 hours) was “synergize”. For the same sequence, the “sensitivity to DOX treatment” value (MDA-MB-231 cells [2]; stably transfected) was “resensitized”, the “sensitivity to DOX treatment” value (MDA-MB-231 cells [2]; transiently transfected) was “resensitized” and the “metastatic potential / in vitro migration” value (MDA-MB-231 cells [1]) was “inhibit the in vitro migration”.
